Data on 15 molecules can be found in patent publication US9023843B2, “Antimicrobial compounds and methods of making and using the same” (Melinta Therapeutics, Inc., priority 2009, dated 2015).

Some results are limits rather than exact numbers.

The test system of this assay is Eschericia coli strain ATCC25922. The assay can be described thus: standard microdilution assay to determine minimum inhibitory concentrations (MICs). It counts as cell-based. As to conditions: Escherichia coli, read-out: E. coli ATCC25922 MIC. The gist of the method: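 Broth microdilution per CLSI protocols, typically 100 µL final volume, against E. coli ATCC25922. MIC values scored as +/− against a cutoff of 16 micrograms/ml.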
For the molecule `CC(=O)NCCOc1cccc2c1Nc1nc(=O)n(C3CCC(CN)CC3)cc1O2` (stereo not drawn) [Compound 1426], the MIC is above 16 µg/mL.

Take `NCCOc1cccc2c1Nc1nc(=O)n([C@H]3CC[C@H](CN)CC3)cc1O2` [Compound 1427]: the minimum inhibitory concentration (MIC) is above 16 µg/mL.

Regarding `NC[C@H]1CC[C@H](n2cc3c(nc2=O)Nc2c(OCCCN4CCNCC4)cccc2O3)CC1` [Compound 1441], the MIC was above 16 µg/mL.

Turning to `NCCCOc1cccc2c1Nc1nc(=O)n([C@H]3CC[C@H](CN)CC3)cc1O2` [Compound 1449], the MIC is above 16 µg/mL.

Turning to `NC[C@H]1CC[C@H](n2cc3c(nc2=O)Nc2c(OCCCCl)cccc2O3)CC1` [Compound 1450], the minimum inhibitory concentration (MIC) was above 16 µg/mL.

Take `NC[C@H]1CC[C@H](n2cc3c(nc2=O)Nc2c(OCc4ccccc4)cccc2O3)CC1` [Compound 1467]: the MIC was above 16 µg/mL.

With `COc1cccc2c1Nc1nc(=O)n([C@H]3CC[C@H](CN)CC3)cc1O2` [Compound 4000c], the MIC was above 16 µg/mL.

For `NC[C@H]1CC[C@H](n2cc3c(nc2=O)Nc2c(OCCNC(N)=O)cccc2O3)CC1` [Compound 4001c], the minimal inhibitory concentration (MIC) was above 16 µg/mL.

With `NC[C@H]1CC[C@H](n2cc3c(nc2=O)Nc2c(OCCNC(=O)NCc4ccccc4)cccc2O3)CC1` [Compound 4002c], the MIC is above 16 µg/mL.

Regarding `NC[C@H]1CC[C@H](n2cc3c(nc2=O)Nc2c(OCCCOCc4ccccc4)cccc2O3)CC1` [Compound 4003c], the minimal inhibitory concentration (MIC) was above 16 µg/mL.

On to `N=C(N)NCCCN[C@H]1CC[C@H](n2cc3c(nc2=O)Nc2c(OCCN)cccc2O3)CC1` [Compound 4004c], for which the MIC is below 16 µg/mL.

Consider `NCCOc1cccc2c1Nc1nc(=O)n([C@H]3CC[C@H](N)CC3)cc1O2` [Compound 4005c], for which the minimal inhibitory concentration (MIC) was above 16 µg/mL.

As to `N=C(N)NCCCNC(=O)[C@H]1CC[C@H](n2cc3c(nc2=O)Nc2c(OCCN)cccc2O3)CC1` [Compound 4006c], the MIC is below 16 µg/mL.

As to `NCCCNC(=O)[C@H]1CC[C@H](n2cc3c(nc2=O)Nc2c(OCCN)cccc2O3)CC1` [Compound 4007c], the MIC is above 16 µg/mL.

Turning to `N=C(N)NCCCNC(=O)[C@H]1CC[C@H](n2cc3c(nc2=O)Nc2c(CCCN)cccc2O3)CC1` [Compound 4008c], the MIC was above 16 µg/mL.
